According to PMC12197678, “Cvill6 and Cvill7: Potent and Selective Peptide Blockers of Kv1.2 Ion Channel Isolated from Mexican Scorpion Centruroides villegasi” (Toxins, 2025):

Key:
Kv1.2 = conditions: ref [21],[22]; cited from earlier work
Text: The Kv1.2 ion channel, a member of voltage-gated potassium channels, is encoded by the KCNA2 gene. Kv1.2 is predominantly expressed in the central nervous system (CNS) abundantly in the cerebellum, hippocampus, and cortex. It plays a crucial role in action potential propagation, neuronal excitability, and synaptic transmission. Gain-of-function (GOF) mutations in KCNA2 cause increased Kv1.2 activity, resulting in excessive potassium conductance leading to neuronal hyperpolarization, and impairing normal brain function. A decade ago, Kv1.2 emerged as a key factor ...

hKv1.3 = biological target: T1, hKv1.3 (Homo sapiens, UniProt P22001); assay: cell-based; assay type: cell-based
T1 construct: peripheral blood mononuclear cells (PBMCs) were isolated from the healthy donor’s blood; endogenous in cells
T1 sequence (P22001 whole entry): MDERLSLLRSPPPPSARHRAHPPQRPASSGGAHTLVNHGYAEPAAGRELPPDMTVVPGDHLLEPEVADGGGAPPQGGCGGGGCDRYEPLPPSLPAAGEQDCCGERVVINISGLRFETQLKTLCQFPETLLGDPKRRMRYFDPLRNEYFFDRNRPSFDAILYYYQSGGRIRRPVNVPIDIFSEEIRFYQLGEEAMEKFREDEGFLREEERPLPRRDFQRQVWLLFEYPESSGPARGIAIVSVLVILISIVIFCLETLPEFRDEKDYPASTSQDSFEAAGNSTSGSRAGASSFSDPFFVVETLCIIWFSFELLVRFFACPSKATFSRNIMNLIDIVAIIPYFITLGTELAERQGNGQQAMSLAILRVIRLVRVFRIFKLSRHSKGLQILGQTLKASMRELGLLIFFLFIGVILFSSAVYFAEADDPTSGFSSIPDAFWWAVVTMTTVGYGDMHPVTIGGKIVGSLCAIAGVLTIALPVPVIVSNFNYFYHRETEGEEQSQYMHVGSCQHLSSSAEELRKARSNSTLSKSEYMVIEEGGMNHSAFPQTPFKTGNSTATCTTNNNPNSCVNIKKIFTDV
Text: Therefore, we aimed to investigate the effects of Cvill6 and Cvill7 on voltage-gated K^+ ion channels. Among the tested ion channels there were four members from the Shaker-related human Kv1 family, hKv1.1, hKv1.2, hKv1.3, and hKv1.5 (Figure 3A–E), and one member of the human ether-a-go-go-related (hERG) cardiac K^+ channel hKv11.1 (hERG1, Figure 3F). For current recordings, Kv1.1, Kv1.2, and Kv1.5 were transiently expressed in CHO cells while for Kv11.1 a stable HEK293 cell line was used. To record Kv1.3 currents human peripheral T lymphocytes were activated with Phytohemagglutinin A (PHA) to boost Kv1.3 expression and Ca^2+-free intracellular solution to prevent the KCa3.1 channel opening. […] Appropriate voltage protocols were applied to record the K^+ currents from voltage-clamped cells in whole-cell configurations. Toxins were freshly dissolved in the bath solution supplemented with 0.1 mg/mL BSA and applied to the patched cells via a gravity-fed micro-perfusion system with an approximate flow rate of 200 µL/min.
To avoid toxin adsorption onto the plastic surfaces of the perfusion system, 0.1 mg/mL of bovine serum albumin (BSA, Sigma-Aldrich, Budapest, Hungary) was also added into all bath solutions prior to the patch-clamp assay.
Whole-cell currents were recorded using the patch-clamp technique in voltage-clamp mode, following standard protocols. […] Micropipettes were made from GC150F-7.5 borosilicate capillaries (Harvard Apparatus Co., Holliston, MA, USA) using a Sutter P2000 laser puller with tip resistance generally ranging from 3–6 MΩ in the bath solution. Only recordings with a leak current at the holding potential (Vh) of <10% of the peak current at the test potential were included in the data analysis. All recordings were performed at room temperature (20–25 °C). Control and test solutions were perfused to the cells via a gravity-driven micro-perfusion system and AutoMate Perfusion Pencil Multi-Barrel Manifold Tip (AutoMate Scientific, Berkeley, CA, USA), with an approximate flow rate of 200 µL/min, and the excess amount of bath solution was continuously removed from the recording chamber using vacuum suction.
The duration of depolarization pulses was 15 ms for Kv1.3 and 50 ms for Kv1.1 and Kv1.5. However, for Kv1.2, 15–500 ms-long pulses were used to achieve the saturated peak current due to the variable activation kinetics of this channel. […] KCa2.2 and KCa3.1 currents were recorded by applying 150 ms-long voltage ramps to +50 mV from −120 mV every 10 s; the Vh was set to −85 mV.
Before analysis, all current traces were digitally filtered using three-point boxcar smoothing and were corrected for ohmic leakage, only if required. […] Data points in the concentration–response curve represent the mean RCF values of three to six individual cells, with error bars denoting the standard error of the mean (SEM). The data points for each concentration were fitted using the Hill equation: RCF = IC50^H/(IC50^H + [toxin]^H), where IC50 is the dissociation constant, H represents the Hill coefficient, and [toxin] is the concentration of the toxin.
To study the binding kinetics of Cvill toxins, the peak current during the application of toxin at time point t (It) was normalized to the peak current (I0) before the toxin exposure (Inorm = It/I0) and plotted as a function of time.

hKv1.5 = assay type: cell-based, human
Experimental: Chinese hamster ovary (CHO) cells (generously provided by Yosef Yarden, Weizmann Institute of Science, Rehovot, Israel) or human embryonic kidney (HEK293) cells were cultured and maintained in Dulbecco’s modified Eagle medium (DMEM, Thermo Fisher Scientific, Waltham, MA, USA) supplemented with 2 mM L-glutamine, 10% fetal bovine serum (FBS), 100 µg/mL streptomycin, and 100 U/mL penicillin-g (Sigma-Aldrich, Budapest, Hungary) following standard culturing conditions [52]. For transient expression of ion channels, CHO cells were transfected using the Lipofectamine 2000 kit (Invitrogen, Waltham, MA, USA) following the manufacturer’s instructions with plasmids encoding specific ion channels, including hKv1.1 (KCNA1 gene), hKv1.2 (KCNA2 gene), and hKv1.5 (KCNA5 gene) in a pCMV6-AC-GFP vector (OriGene Technologies), hKCa2.2 (KCNN2 gene) in a pCDN3 plasmid (for this transfection a GFP containing plasmid was co-transfected, courtesy of Bernard Attali, Tel Aviv University, Tel Aviv, Israel), and hKCa3.1 (KCNN4 gene) in a pEGFP-C1 vector (a kind gift by H. Wulff, University of California, Davis, CA, USA). […] Electrophysiological recordings were typically conducted 24 to 48 h after transfection. […]
Whole-cell currents were recorded using the patch-clamp technique in voltage-clamp mode, following standard protocols [73]. […]

hKv1.1 = biological target: T2, hKv1.1 (Homo sapiens, UniProt Q09470); assay: cell-based; assay type: cell-based
T2 construct: host or cells: CHO cells, transient transfection (Lipofectamine 2000)
T2 sequence (Q09470 whole entry): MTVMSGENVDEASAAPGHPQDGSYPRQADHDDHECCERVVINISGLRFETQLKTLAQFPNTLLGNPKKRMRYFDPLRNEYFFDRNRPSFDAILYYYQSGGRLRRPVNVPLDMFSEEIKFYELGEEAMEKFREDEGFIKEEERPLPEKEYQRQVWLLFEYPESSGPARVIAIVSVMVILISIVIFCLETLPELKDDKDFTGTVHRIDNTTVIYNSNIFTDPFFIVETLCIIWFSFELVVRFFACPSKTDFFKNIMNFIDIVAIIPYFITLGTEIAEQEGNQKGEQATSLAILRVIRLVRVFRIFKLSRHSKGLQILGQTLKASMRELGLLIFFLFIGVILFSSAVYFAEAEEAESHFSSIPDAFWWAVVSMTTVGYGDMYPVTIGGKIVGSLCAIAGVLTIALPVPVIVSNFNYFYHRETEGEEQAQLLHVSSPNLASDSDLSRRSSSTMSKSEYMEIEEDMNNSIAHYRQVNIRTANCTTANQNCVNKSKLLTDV
Experimental: (§1) Chinese hamster ovary (CHO) cells (generously provided by Yosef Yarden, Weizmann Institute of Science, Rehovot, Israel) or human embryonic kidney (HEK293) cells were cultured and maintained in Dulbecco’s modified Eagle medium (DMEM, Thermo Fisher Scientific, Waltham, MA, USA) supplemented with 2 mM L-glutamine, 10% fetal bovine serum (FBS), 100 µg/mL streptomycin, and 100 U/mL penicillin-g (Sigma-Aldrich, Budapest, Hungary) following standard culturing conditions [52]. For transient expression of ion channels, CHO cells were transfected using the Lipofectamine 2000 kit (Invitrogen, Waltham, MA, USA) following the manufacturer’s instructions with plasmids encoding specific ion channels, including hKv1.1 (KCNA1 gene), hKv1.2 (KCNA2 gene), and hKv1.5 (KCNA5 gene) in a pCMV6-AC-GFP vector (OriGene Technologies), hKCa2.2 (KCNN2 gene) in a pCDN3 plasmid (for this transfection a GFP containing plasmid was co-transfected, courtesy of Bernard Attali, Tel Aviv University, Tel Aviv, Israel), and hKCa3.1 (KCNN4 gene) in a pEGFP-C1 vector (a kind gift by H. Wulff, University of California, Davis, CA, USA). […] Electrophysiological recordings were typically conducted 24 to 48 h after transfection.
(§2) Whole-cell currents were recorded using the patch-clamp technique in voltage-clamp mode, following standard protocols [73]. […] Micropipettes were made from GC150F-7.5 borosilicate capillaries (Harvard Apparatus Co., Holliston, MA, USA) using a Sutter P2000 laser puller with tip resistance generally ranging from 3–6 MΩ in the bath solution. Only recordings with a leak current at the holding potential (Vh) of <10% of the peak current at the test potential were included in the data analysis. All recordings were performed at room temperature (20–25 °C). Control and test solutions were perfused to the cells via a gravity-driven micro-perfusion system and AutoMate Perfusion Pencil Multi-Barrel Manifold Tip (AutoMate Scientific, Berkeley, CA, USA), with an approximate flow rate of 200 µL/min, and the excess amount of bath solution was continuously removed from the recording chamber using vacuum suction.
(§3) The duration of depolarization pulses was 15 ms for Kv1.3 and 50 ms for Kv1.1 and Kv1.5. However, for Kv1.2, 15–500 ms-long pulses were used to achieve the saturated peak current due to the variable activation kinetics of this channel [74].

hKv1.2 = biological target: T3, hKv1.2 (Homo sapiens, UniProt P16389); assay: Whole-cell patch-clamp, hKv1.2 current in transiently transfected CHO cells; assay type: cell-based; conditions: positive control
T3 construct: host or cells: CHO cells, transient transfection (Lipofectamine 2000)
T3 sequence (P16389 whole entry): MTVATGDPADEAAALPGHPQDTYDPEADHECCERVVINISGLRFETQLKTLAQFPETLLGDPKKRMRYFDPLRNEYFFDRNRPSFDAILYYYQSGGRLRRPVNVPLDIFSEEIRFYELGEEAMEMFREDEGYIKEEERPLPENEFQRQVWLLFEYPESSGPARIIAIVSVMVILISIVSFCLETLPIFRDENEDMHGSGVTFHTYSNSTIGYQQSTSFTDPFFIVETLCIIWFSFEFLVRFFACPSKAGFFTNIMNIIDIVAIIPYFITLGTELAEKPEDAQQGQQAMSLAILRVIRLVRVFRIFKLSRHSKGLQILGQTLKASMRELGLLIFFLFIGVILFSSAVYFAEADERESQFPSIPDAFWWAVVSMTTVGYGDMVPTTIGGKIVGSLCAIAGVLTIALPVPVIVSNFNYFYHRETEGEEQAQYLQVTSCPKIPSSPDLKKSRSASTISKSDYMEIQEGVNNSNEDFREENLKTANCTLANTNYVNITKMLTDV
Experimental: as §1, §2, §3

Nc1ccncc1 [4-aminopyridine]
effect on gain-of-function defects in patients with KCNA2-related encephalopathy (Kv1.2): can mitigate the gain-of-function defects in patients

CC[N+](CC)(CC)CC [TEA^+, tetraethylammonium chloride, reference compound]
inhibition of Kv1.3 by positive control (hKv1.3): fully reversible inhibitors | inhibition of Kv1.5 by positive control (hKv1.5): fully reversible inhibitors | inhibition of Kv1.1 by positive control (hKv1.1): fully reversible inhibitors

charybdotoxin [reference compound]
inhibition of Kv1.2 by positive control (hKv1.2): fully reversible inhibitors
